The results in this text go back to EP0569083A1, “New quinazolines as inhibitors of HIV reverse transcriptase” (priority 1992, dated 1993).

Like-named read-outs stand apart in the source and are kept apart here.

One test addresses T1, A17 RT (Human immunodeficiency virus type 1 group M subtype B, UniProt P04585, K690N/Y768C).
T1 construct: A17 RT was employed in the assay; made in house; host or cells: bacteria
Put plainly: Reverse transcriptase assay, double (DBL) mutant. It is filed as biochemical, HIV. Here is the method: (§1) The assay measures the incorporation of tritiated deoxyguanosine monophosphate by recombinant HIV reverse transcriptase (HIV RTR) (or other RT) into acid-precipitable cDNA at the Km values of dGTP and poly r(C)·oligo d(G)₁₂₋₁₈.
(§2) The assays were carried out in 55 mM Tris (pH 8.2)-30 mM KCl-30 mM MgCl₂-1 mM dithiothreitol-20 µg of rC:dG₁₂₋₁₈ (Pharmacia) per ml-8 µM [³H]dGTP (New England Nuclear)-0.01% Triton X-100-50 µM ethylene glycol-bis(β-amino-ethyl ether)-N,N,N',N'-tetraacetic acid (EGTA)-1 mg of bovine serum albumin per ml. After 60 min of incubation at 37°C, acid-precipitable material was collected onto glass fiber filters by using a semiautomatic cell harvester. Bacterial cell extracts containing RT were diluted to within the linear range of the assay, and activity was determined in the presence and absence of inhibitor. Purified HIV-1 RT heterodimer produced in E. coli also served as a control.
For the double (DBL) mutant assay, A17 RT was employed in the assay. A17 RT is resistant to various aminopyridones, as described in Nunberg, J.H. et al., J. Virol. 65, 4887 (1991).

Test [1] addresses T2, recombinant HIV reverse transcriptase (HIV RTR) (Human immunodeficiency virus type 1 group M subtype B, UniProt P04585).
T2 construct: recombinant HIV reverse transcriptase (HIV RTR); made in house; host or cells: bacteria (E. coli is named only for the purified heterodimer control)
Put plainly: Reverse transcriptase assay (incorporation of tritiated dGMP into acid-precipitable cDNA). It is filed as biochemical. Here is the method: as §1, §2

[2] abbreviates: recombinant HIV RT, 60 min at 37°C, read-out: IC50.

Take `O=C1Nc2ccc(Cl)cc2C(C#Cc2ccccn2)(C2CC2)N1` (racemic) [Compound 11, 6-chloro-4-cyclopropyl-3,4-dihydro-4-((2-pyridyl)ethynyl)quinazolin-2(1H)-one]: the results for the IC50 (on A17 RT; in test [1]) were 635 nM and 19 nM, respectively.

`COCC#CC1(C2CC2)NC(=O)Nc2ccc(Cl)cc21` (stereo not drawn) [Compound 1, 6-chloro-4-cyclopropyl-3,4-dihydro-4-(3-methoxy-1-propynyl)quinazolin-2(1H)-one]: the figures for the IC50 (against A17 RT; in test [1]) were 7300 nM and 49 nM, respectively.

On to `COCC#CC1(C2CC2)c2cc(Cl)ccc2NC(=O)N1C` (stereo not drawn) [Compound 2, 6-chloro-4-cyclopropyl-3,4-dihydro-3-methyl-4-(3-methoxy-1-propynyl)quinazolin-2(1H)-one], for which the IC50 was determined as 700 nM against A17 RT and 13 nM in test [1].

Take `CN1C(=O)Nc2ccc(Cl)cc2C1(C#CCOCC(F)(F)F)C1CC1` (stereo not drawn) [Compound 3, 6-chloro-4-cyclopropyl-3,4-dihydro-3-methyl-4-(3-(2,2,2-trifluoroethoxy)-1-propynyl)quinazolin-2(1H)-one]: the IC50 against A17 RT is 2600 nM; in test [1], 19 nM.

Consider `CN1C(=O)Nc2ccc(Cl)cc2C1(C#CCCF)C1CC1` (stereo not drawn) [Compound 4, 6-chloro-4-cyclopropyl-4-(4-fluoro-1-butynyl)-3,4-dihydro-3-methylquinazolin-2(1H)-one], for which the IC50 against A17 RT stood at 230 nM; in test [1], 7 nM.

As to `O=C1Nc2ccc(Cl)cc2C(C#CCCF)(C2CC2)N1` (stereo not drawn) [Compound 5, 6-chloro-4-cyclopropyl-4-(4-fluoro-1-butynyl)-3,4-dihydroquinazolin-2(1H)-one], the IC50 was 3500 nM against A17 RT and 31 nM in test [1].

In the case of `CN1C(=O)Nc2ccc(Cl)cc2C1(C#CCCCl)C1CC1` (stereo not drawn) [Compound 6, 6-chloro-4-(4-chloro-1-butynyl)-4-cyclopropyl-3,4-dihydro-3-methylquinazolin-2(1H)-one], the IC50 against A17 RT came out at 250 nM; in test [1], 7 nM.

Take `CN1C(=O)Nc2ccc(Cl)cc2C1(C#CCN=[N+]=[N-])C1CC1` (stereo not drawn) [Compound 7, 4-(3-azido-1-propynyl)-6-chloro-4-cyclopropyl-3,4-dihydro-3-methylquinazolin-2(1H)-one]: the values for the IC50 (on A17 RT; in test [1]) were 1750 nM and 20 nM, respectively.

On to `CN1C(=O)Nc2ccc(Cl)cc2C1(C#CCF)C1CC1` (stereo not drawn) [Compound 8, 6-chloro-4-cyclopropyl-4-(3-fluoro-1-propynyl)-3,4-dihydro-3-methylquinazolin-2(1H)-one], for which the IC50 came out at 2900 nM on A17 RT and 24 nM in test [1].

For `CN(C)CC#CC1(C2CC2)c2cc(Cl)ccc2NC(=O)N1C` (stereo not drawn) [Compound 9, 6-chloro-4-cyclopropyl-3,4-dihydro-3-methyl-4-(3-(N,N-dimethylamino)-1-propynyl)quinazolin-2(1H)-one], the IC50 on A17 RT turned out to be 273 nM; in test [1], 54 nM.

Turning to `CN1C(=O)Nc2ccc(Cl)cc2C1(C#Cc1ccccn1)C1CC1` (stereo not drawn) [Compound 10, 6-chloro-4-cyclopropyl-3,4-dihydro-3-methyl-4-((2-pyridyl)ethynyl)quinazolin-2(1H)-one], the IC50 on A17 RT was 87 nM; in test [1], 21 nM.

As to `O=C1Nc2ccc(Cl)cc2C(C#Cc2cccnc2)(C2CC2)N1` (stereo not drawn) [Compound 12, 6-chloro-4-cyclopropyl-3,4-dihydro-4-((3-pyridyl)ethynyl)quinazolin-2(1H)-one], the values for the IC50 (on A17 RT; in test [1]) were 310 nM and 84 nM, respectively.

For `O=C1Nc2ccc(Cl)cc2C(C#Cc2ccncc2)(C2CC2)N1` (stereo not drawn) [Compound 13, 6-chloro-4-cyclopropyl-3,4-dihydro-4-((4-pyridyl)ethynyl)quinazolin-2(1H)-one], the IC50 against A17 RT stood at 3000 nM; in test [1], 470 nM.

Take `O=C1Nc2ccc(Cl)cc2C(C#Cc2cncnc2)(C2CC2)N1` (stereo not drawn) [Compound 14, 6-chloro-4-cyclopropyl-3,4-dihydro-4-((5-pyrimidinyl)ethynyl)quinazolin-2(1H)-one]: the IC50 at A17 RT was 3000 nM; in test [1], 1750 nM.

Regarding `O=C1Nc2ccc(Cl)cc2C(C#Cc2ncccn2)(C2CC2)N1` (stereo not drawn) [Compound 15, 6-chloro-4-cyclopropyl-3,4-dihydro-4-((2-pyrimidinyl)ethynyl)quinazolin-2(1H)-one], the values for the IC50 (against A17 RT; in test [1] (setting [2])) were 8800 nM and 130 nM, respectively.

With `O=C1Nc2ccc(Cl)cc2C(C#Cc2cnccn2)(C2CC2)N1` (stereo not drawn) [Compound 16, 6-chloro-4-cyclopropyl-3,4-dihydro-4-((2-pyrazinyl)ethynyl)quinazolin-2(1H)-one], the figures for the IC50 (on A17 RT; in test [1] (setting [2])) were 9000 nM and 270 nM, respectively.

Turning to `CN1C(=O)Nc2ccc(Cl)cc2C1(C#CCOc1ccncc1)C1CC1` (stereo not drawn) [Compound 17, 6-chloro-4-cyclopropyl-3,4-dihydro-3-methyl-4-(3-(4-pyridyloxy)-1-propynyl)quinazolin-2(1H)-one], the IC50 stood at 3900 nM on A17 RT and 165 nM in test [1].

In the case of `CN1C(=O)Nc2ccc(Cl)cc2C1(C#CCOc1cc[n+]([O-])cc1)C1CC1` (stereo not drawn) [Compound 18, 6-chloro-4-cyclopropyl-3,4-dihydro-3-methyl-4-(3-(4-(N-oxopyridyl)oxy)-1-propynyl)quinazolin-2(1H)-one], the IC50 was 65000 nM on A17 RT (A17 RT (double mutant, resistant to aminopyridones), read-out: IC50DBL Mutant) and 9400 nM in test [1] (setting [2]).

With `CN1C(=O)Nc2ccc(Cl)cc2C1(C#CCN1CCOCC1)C1CC1` (stereo not drawn) [Compound 19, 6-chloro-4-cyclopropyl-3,4-dihydro-3-methyl-4-(3-(4-morpholinyl)-1-propynyl)quinazolin-2(1H)-one], the figures for the IC50 (at A17 RT; in test [1]) were 22000 nM and 1000 nM, respectively.

In the case of `CN1C(=O)Nc2ccc(Cl)cc2C1(C#CCn1ccnc1)C1CC1` (stereo not drawn) [Compound 20, 6-chloro-4-cyclopropyl-3,4-dihydro-4-(3-(1-imidazolyl)-1-propynyl)-3-methylquinazolin-2(1H)-one], the figures for the IC50 (on A17 RT; in test [1]) were 960 nM and 620 nM, respectively.

Consider `C=CC#CC1(C2CC2)c2cc(Cl)ccc2NC(=O)N1C` (stereo not drawn) [Compound 21, 4-(3-buten-1-ynyl)-6-chloro-4-cyclopropyl-3,4-dihydro-3-methylquinazolin-2(1H)-one], for which the figures for the IC50 (against A17 RT; in test [1]) were 248 nM and 4.3 nM, respectively.

Turning to `CN1C(=O)Nc2ccc(Cl)cc2C1(C#CCO)C1CC1` (stereo not drawn) [Compound 22, 6-Chloro-4-cyclopropyl-3,4-dihydro-4-(3-hydroxy-1-propynyl)-3-methylquinazolin-2(1H)-one], the IC50 in test [1] came to 255 nM.

For `O=C1Nc2ccc(Cl)cc2C(C#Cc2ccccc2)(C2CC2)N1` (stereo not drawn) [Compound 23, 6-chloro-4-cyclopropyl-3,4-dihydro-4-(phenylethynyl)quinazolin-2(1H)-one], the figures for the IC50 (on A17 RT; in test [1]) were 135 nM and 6.1 nM, respectively.

As to `CN1C(=O)Nc2ccc(Cl)cc2C1(C#CCOc1ccccn1)C1CC1` (stereo not drawn) [Compound 24, 6-Chloro-4-cyclopropyl-3,4-dihydro-3-methyl-4-(3-(2-pyridyloxy)-1-propynyl)quinazolin-2(1H)-one], the IC50 against A17 RT was determined as 4900 nM; in test [1], 125 nM.

Regarding `O=C1Nc2ccc(Cl)cc2C(C#Cc2ccccc2[N+](=O)[O-])(C2CC2)N1` (stereo not drawn) [Compound 25, 6-Chloro-4-cyclopropyl-3,4-dihydro-4-(2-nitrophenylethynyl)quinazolin-2(1H)-one], the IC50 against A17 RT came to 390 nM; in test [1] it was 10.5 nM.

Regarding `O=C1Nc2ccc(Cl)cc2[C@@](C#Cc2ccccn2)(C2CC2)N1` [Compound 26, 6-chloro-4(S)-cyclopropyl-3,4-dihydro-4-((2-pyridyl)ethynyl)quinazolin-2(1H)-one], the IC50 at A17 RT stood at 400 nM; in test [1] it was 7 nM.
